# Earlier results as cited in patent US10189872B2, “Crystalline form of nicotinamide riboside” (W. R. Grace & Co.-Conn., priority 2015, dated 2019).
# Conditions: mice on a high-fat diet supplemented with nicotinamide riboside; 2012 study
smiles,measurement,value
"NC(=O)c1ccc[n+]([C@@H]2O[C@H](CO)[C@@H](O)[C@H]2O)c1 [nicotinamide riboside, Nicotinamide riboside]",less weight gained than mice eating the same high-fat diet without nicotinamide riboside,60%
